Results taken from patent US20150336977A1 (B.G. NEGEV TECHNOLOGIES AND APPLICATIONS LTD., priority 2013, published 2015).
Where two headings read alike, the source gives them in different places.

System: MCF-7 cells
Assay: MTT proliferation assay in estrogen-dependent MCF-7 breast cancer cells
Type: cell-based
Details: for estrogenic activity relative to natural compound 1: comparison with coumestrol (compound 1)
Procedure: MCF-7 cells and MDA-MB-231 cells were maintained in Costar T75 flasks with Dulbeccos Modified Eagle Medium (DMEM) supplemented with 2 mM glutamine and 10% fetal bovine serum (Biological Industries Beit Haemek, LTD).
To deplete cells of estrogens, they were passaged for 1 week in phenol red-free DMEM supplemented with 10% estrogen-depleted calf serum (DCS/MEM) which was made by sequential treatment of calf serum with sulfatase and dextran-coated charcoal (Biological Industries Beit Haemek, LTD).
MCF-7 and MDA-MB-231 cells were plated in 96 well dishes (Costar) at approximately 5,000 cells/well and 2500 cells/well respectively in 100 ul medium. One day after plating (Day 0) 100 μl of the treatment media were added.
Final volume in each well was 200 μl. Each chemical was diluted to a final concentration of 10^−3M. At day 0 compounds 1 and 8b-8m (table 1) were diluted aside and 100 μl from each dilution were added to each well. The following dilution steps were performed: 2×10^−6M (4 μl of 10^−3M in 2 mL), 2×10^−7 M (200 μl of 2×10^−6M in 2 mL), 2×10^−8M (200 μl of 2×10^−7M in 2 mL) and 2×10^−9M (200 μl of 2×10^−8M in 2 mL).
Cell proliferation was quantified by colorimetric MTT assay. The use and validity of the MTT assay in MCF-7 cells is described by Martikainen et al.
Measurement of cell viability and proliferation were based on the reduction of tetrazolium salts using the MTT kit (Biological Industries Beit Haemek, LTD) according to the manufacturer instructions. The yellow tetrazolium MTT (3-(4,5-dimethylthiazolyl-2)-2,5-diphenyltetrazolium bromide) is reduced by metabolically active cells, in part by the action of dehydrogenase enzymes, to generate reducing equivalents such as NADH and NADPH. The resulting intracellular purple formazan can be solubilized and quantified by spectrophotometric means. The MTT Reagent yields low background absorbance values in the absence of cells. MTT assay was used to evaluate cell number in each well.

[1] = Homo sapiens, MCF7, cell proliferation effect on MCF-7 cell line (estrogen dependent cells), MTT, NA = Not Active, read-out: IC50
[2] = Homo sapiens, MCF7, MCF-7 breast cancer cells, read-out: IC50 value

Row | SMILES | IC50 [1] [nM] | IC50 [2] [nM] | estrogenic activity relative to natural compound 1 | further results
1 | O=c1oc2ccccc2c2oc3cc(O)ccc3c12 [Compound 8d, 3-hydroxycoumestn] | 568 |  | at least one order of magnitude less active | proliferative effect on the MCF-7 cells (ER-positive breast cancer line MCF-7, result in words): did not showed any proliferative effect
2 | O=c1oc2cc(O)ccc2c2oc3cc(O)c(O)cc3c12 [Compound 8c, 8-hydroxycoumestrol] |  |  | at least one order of magnitude less active | 
3 | O=c1oc2cc(O)ccc2c2oc3cc(O)ccc3c12 [Compound 1, coumestrol] |  |  |  | IC50 (cell proliferation effect on MCF-7 cell line (estrogen dependent cells), MTT, NA = Not Active, read-out: IC50): 73 nM
4 | CC(=O)Nc1ccc2oc3c4ccc(O)cc4oc(=O)c3c2c1 [Compound 8h, 8-acetamidecoumestrol] | 9 | < 1 |  | 
5 | O=c1oc2ccccc2c2oc3ccccc3c12 [Compound 8b] |  |  | at least one order of magnitude less active | 
6 | O=c1oc2cc(O)ccc2c2oc3ccc(F)cc3c12 [Compound 8j] | 220 |  |  | 
7 | O=c1oc2cc(O)ccc2c2oc3ccc(O)cc3c12 [Compound 8f] |  |  | at least one order of magnitude less active | 

More lines, main results first:

Row | IC50 [1] [nM] | IC50 [2] [nM] | SMILES | estrogenic activity relative to natural compound 1 | further results
8 | 58 | 58 | CCOC(=O)c1ccc2oc3c4ccc(O)cc4oc(=O)c3c2c1 [Compound 8k] |  | 
9 | 180 | 180 | O=c1oc2cc(O)ccc2c2oc3ccc4ccccc4c3c12 [Compound 8m, napthocoumestrol] |  | 
10 | 30 | 30 | CC(=O)Nc1ccc2c(c1)oc1c3ccc(O)cc3oc(=O)c21 [Compound 8g] |  | 
11 | 170 | 170 | O=c1oc2cc(O)ccc2c2oc3ccc(C(F)(F)F)cc3c12 [Compound 8l, 3-trifluoromethylcoumestrol] |  | 
12 | 107 | 107 | O=c1oc2cc(O)ccc2c2oc3ccc(Br)cc3c12 [Compound 8i] |  | 
